# Reference: patent US20220213198A1, “METHOD OF TREATMENT” (The Council of the Queensland Institute of Medical Research, priority 2019, published 2022)
# Tested on: NK cells
# Experiment: Ex vivo NK cell effector function in tumor-bearing lungs (IFNγ, CD107a)
# Set-up: species or system mouse
# Procedure: FIG. 3. Upregulation of surface MR1 on tumor cells suppresses NK cell function through MAIT cells. (A) Schematic to analyze NK effector function in the lungs of C57BL/6 WT or MR1^−/− mice injected with 5-OP-RU-pulsed B16F10 or LWT1 cells. On day 5 relative to tumor inoculation, lungs were harvested from the indicated groups of mice (n=5-6/group) and stimulated with PMA/ionomycin plus protein transport inhibitors and NK cell effector function was assessed by flow cytometry. (B) Representative contour plots of IFNγ staining in NK cells (NKp46^+ NK1.1^+ TCRβ^− CD45.2^+) and (C) the proportion and MFI of IFNγ^+ NK cells amongst total NK cells in B16F10-bearing lungs. (D) Representative contour plots of CD107a staining in NK cells and (E) the proportion and MFI of CD107a^+ NK cells amongst total NK cells in B16F10 tumor-bearing lungs. (F) Representative contour plots of IFNγ staining in NK cells and (G) the proportion and MFI of IFNγ^+ NK cells amongst total NK cells in LWT1 tumor-bearing lungs. (H) Representative contour plots of CD107a staining in NK cells and (I) the proportion and MFI of CD107a^+ NK cells amongst total NK cells in the LWT1-bearing lungs. Data presented as mean±SEM. Significant differences between groups as indicated by crossbars were determined using a one-way ANOVA followed by Tukey's post-hoc test, *p<0.05, **p<0.01, ***p<0.001, ****p<0.0001.
# FIG. 4. Upregulation of MR1 on B16F10 activates MAIT cells to suppress NK cell effector function through IL-17. (A) Schematic to analyze MAIT or NK cell effector function in the lungs of C57BL/6 WT or MR1^−/− mice injected with 5-OP-RU- or DMSO-stimulated B16F10 melanoma cells. On day 5 relative to tumor inoculation, lungs were harvested and stimulated with PMA/ionomycin plus protein transport inhibitors for 4 hours and MAIT or NK cell function was assessed by flow cytometry. (B) The proportion of CD69^+ MAIT cells amongst total MAIT cells (B220^− F4/80^− MR1-5-OP-RU tetramer^+ TCRβ^+) in naïve or tumor-bearing lungs. Data presented as mean±SEM. (C) Representative dot plot of IL-17 expression by MAIT cells. The (D) proportion of IL-17^+ MAIT cells amongst total MAIT cells in the lungs of naïve and tumor-bearing mice as indicated. Data presented as mean±SEM. (E) Representative dot plot of TNF expression by MAIT cells. The (F) proportion of TNF MAIT cells and (G) IFNγ^+ MAIT cells amongst total MAIT cells in the lungs of naïve and tumor-bearing mice as indicated. (H, I) On day 5 relative to tumor inoculation, lungs were harvested (n=6/group) and stimulated with PMA/ionomycin plus protein transport inhibitors for 3 hours and NK cell function was assessed by flow cytometry. The proportion of IFNγ^+ NK cells and CD107a^+ NK cells amongst total NK cells (NKp46^+ NK1.1^+ TCRβ^− CD45.2^+) in tumor-bearing C57BL/6 WT or IL-17^−/− mice. Data presented as mean±SEM. (J) Groups of WT or MR1^−/− mice (n=4-6/group) were injected i.v. with 1×10^5 B16F10 melanoma cells. In some groups, sorted MAIT cells (2×10^5 cells/mouse) from C57BL/6 WT or IL-17A^−/− mice were i.v. injected into the indicated groups of mice one day before tumor inoculation. On day 14 relative to tumor cell inoculation, lungs were harvested and the metastatic burden was quantified by counting colonies on the lung surface. Data presented as mean±SEM. Data pooled from two independent experiments for (B, D, F, G). Experiments were performed once for (H-K). Significant differences between groups as indicated by crossbars were determined using a one-way ANOVA followed by Tukey's post-hoc test (B, D, F, J), or a Mann-Whitney test (H, I), *p<0.05, **p<0.01, ***p<0.001, ****p<0.0001.
# Single cell suspensions from lungs of the indicated groups were incubated in a 96-well U-bottom plate in complete RPMI 1640 media. Cells were incubated in the presence or absence of cell stimulation cocktail (PMA/ionomycin) plus protein transport inhibitors (Golgistop and Golgiplug) (1000 times dilution) for 3-4 hours as indicated. […]
compound,measurement,setting,value
CC(=O)C=Nc1c(NC[C@H](O)[C@H](O)[C@H](O)CO)[nH]c(=O)[nH]c1=O [5-OP-RU],proportions of IFNγ producing and CD107a expressing NK cells,"IL-17A-/- mice, treated vs DMSO-treated B16F10, day 5",this reduction was not observed
same,NK cell effector function,MR1-/- mice that received treated LWT1,did not manifest
same,NK cell effector function,WT mice that received treated LWT1,suppression of NK cell effector function was observed
same,NK cell function,"lungs of MR1-/- mice, treated vs DMSO-treated B16F10, day 5",not suppressed
same,proportions of NK cells producing IFNγ and MFI,"lungs of WT mice bearing treated vs DMSO-treated B16F10, day 5",significantly decreased
same,proportions of NK cells expressing CD107a and expression levels,"lungs of WT mice, treated vs DMSO-treated B16F10, day 5",significantly decreased
